In publication PMC6859649 (Free radical biology & medicine, 2017):
Where a name gives a salt, the structure may show the parent alone.

Target: Myeloperoxidase (MPO) (Homo sapiens, UniProt P05164)
Assay: taurine chloramine chlorination assay
Type: biochemical

Sequence of Myeloperoxidase (MPO) (P05164 165-273): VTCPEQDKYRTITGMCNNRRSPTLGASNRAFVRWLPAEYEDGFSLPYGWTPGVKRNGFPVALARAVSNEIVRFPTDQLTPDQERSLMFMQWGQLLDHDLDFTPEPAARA
Sequence of Myeloperoxidase (MPO) (P05164 279-745): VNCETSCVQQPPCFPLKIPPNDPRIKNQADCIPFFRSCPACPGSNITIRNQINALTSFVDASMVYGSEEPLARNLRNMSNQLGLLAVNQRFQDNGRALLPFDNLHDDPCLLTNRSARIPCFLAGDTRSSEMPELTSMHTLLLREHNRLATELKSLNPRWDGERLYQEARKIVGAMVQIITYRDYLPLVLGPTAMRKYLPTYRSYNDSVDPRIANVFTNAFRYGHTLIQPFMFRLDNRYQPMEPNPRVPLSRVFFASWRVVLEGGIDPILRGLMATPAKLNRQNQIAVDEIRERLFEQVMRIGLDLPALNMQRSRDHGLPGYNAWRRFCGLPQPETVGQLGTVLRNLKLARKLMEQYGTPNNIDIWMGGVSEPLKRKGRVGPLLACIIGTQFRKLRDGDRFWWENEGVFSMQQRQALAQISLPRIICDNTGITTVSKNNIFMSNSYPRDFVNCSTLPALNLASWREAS

## O=S(=O)(O)CCS [mesna, 2-mercaptoethanesulfonic acid sodium salt]
  IC50: ~5 µM
